Laboratory results reported in patent publication US20080160019A1, “SEQUENTIAL COMBINATION THERAPY” (DYAX CORP., priority 2006, published 2008).

Experiments:
[1] = system: BxPC3 (human pancreatic cancer cell line) tumor; assay: Pancreatic cancer xenograft model, tumor size by calipers (Example 3); format: in vivo, nude mice (nu/nu); details: as single agents
Protocol: The antitumor activity of combinations of DX-2240 and bevacizumab (anti-VEGF antibody) or sorafenib (multi-kinase inhibitor) were tested in a human tumor xenograft model. BxPC3 (human pancreatic cancer cell line) tumor fragments harvested from host nude mice (nu/nu) bearing subcutaneous BxPC-3 tumors were implanted subcutaneously into female nude mice (study animals) and allowed to form tumors. Mice were pair matched by tumor size and randomized into the various treatment groups when the tumors reached approximately 100 mm^3 (about 18 days following tumor implantation). The animals were assorted into the treatment groups shown in Table 1 (“Start” refers to the day on which treatment was begun). DX-2240 was administered by intraperitoneal (IP) injection at 20 mg/kg; bevacizumab was administered by IP injection at 10 mg/kg, sorafenib was administered orally at 60 mg/kg (for a total of 9 doses), and the control IgG (palivizumab, an antibody of the same isotype as DX-2240) was administered by IP injection at 20 mg/kg at the indicated dosing start dates and dosing regimens. An additional positive control group (group 13) was included: these animals were dosed with gemcitabine at 40 mg/kg Q3d for a total of four doses.
Tumor size was evaluated every three to four days using calipers.

[2] = system: DU145 prostate cancer cells; assay: Prostate cancer xenograft model, tumor volume (Example 4); format: in vivo, athymic nu/nu mice; details: bevacizumab alone at 12 mg/kg, Q5d
Protocol: DU145 prostate cancer cells were injected subcutaneously into athymic nu/nu mice and tumors were allowed to form. Animals were assorted into groups of 9-10 mice, then treated with DX-2240 (20 mg/kg by IP injection, […]), an isotype-matched antibody control (A2, 20 mg/kg by IP injection, Q2d), bevacizumab (12 mg/kg by IP injection, […]), DX-2240 20 mg/kg Q2d+bevacizumab (DX-2240 20 mg/kg Q2d+bevacizumab at 12 mg/kg, […], starting at day 25), DX-2240 20 mg/kg Q4d+bevacizumab (DX-2240 20 mg/kg Q4d+bevacizumab at 12 mg/kg, […], starting at day 25), DX-2240 10 mg/kg Q4d+bevacizumab (DX-2240 10 mg/kg Q4d+bevacizumab at 12 mg/kg, […], starting at day 25), DX-2240 5 mg/kg Q4d+bevacizumab (DX-2240 5 mg/kg Q4d+bevacizumab at 12 mg/kg, […], starting at day 25), DX-2240 1 mg/kg Q4d+bevacizumab (DX-2240 1 mg/kg Q4d+bevacizumab at 12 mg/kg, […], starting at day 25), DX-2240+sorafenib (DX-2240 at 20 mg/kg by IP injection, […], sorafenib at 100 mg/kg orally (PO) daily for nine days (QDx9) starting at day 25 and 56), or A2+sorafenib (A2 at 20 mg/kg by IP injection, […], sorafenib 100 mg/kg PO QDx9 starting at day 25 and 56). After day 34, mice in the DX-2240 only and A2 only groups were given an additional agent, and were no longer available as controls for this experiment. Tumor volume was measured twice weekly.

bevacizumab: anti-VEGF antibody
tumor size as compared to control [1]: reduced tumor size
tumor size [2]: tumor shrinkage
